Measurements from article PMC8440923, “Peptides Targeting the Interaction Between Erb1 and Ytm1 Ribosome Assembly Factors” (Frontiers in Molecular Biosciences, 2021).
Residues, ends and D or L forms follow the SMILES beside them. No end group written: not given here. *: point of attachment. Biotin = O=C1N[C@H]2[C@H](CS[C@H]2CCCCC(=O)*)N1

Assays:
Ytm1 [1] = target: T1, Ytm1 (Thermochaetoides thermophila, UniProt G0SFB5); assay: Biolayer interferometry peptide affinity assay, immobilized biotinylated peptide, Ytm1 analyte; set-up: species or system Chaetomium thermophilum; details: BLI, streptavidin biosensor, 50 µg/ml biotinylated peptide immobilized, read-out: ka (1/Ms) of Ytm1 binding to immobilized biotinylated peptide
T1 construct: 6xHis; made in house; host or cells: Sf9 insect cells (baculovirus)
T1 sequence (G0SFB5 1-495): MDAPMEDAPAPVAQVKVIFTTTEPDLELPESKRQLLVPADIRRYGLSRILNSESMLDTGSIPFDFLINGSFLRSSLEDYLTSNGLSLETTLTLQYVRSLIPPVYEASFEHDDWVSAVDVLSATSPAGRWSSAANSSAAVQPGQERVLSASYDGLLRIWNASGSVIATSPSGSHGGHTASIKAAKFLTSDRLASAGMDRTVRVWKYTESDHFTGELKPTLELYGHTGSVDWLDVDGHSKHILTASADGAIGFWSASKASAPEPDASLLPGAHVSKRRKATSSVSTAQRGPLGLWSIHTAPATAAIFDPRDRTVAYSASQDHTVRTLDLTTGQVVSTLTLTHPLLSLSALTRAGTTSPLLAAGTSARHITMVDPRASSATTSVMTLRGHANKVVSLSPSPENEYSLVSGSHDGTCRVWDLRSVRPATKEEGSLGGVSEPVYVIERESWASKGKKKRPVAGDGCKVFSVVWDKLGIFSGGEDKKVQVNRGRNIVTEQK
Experimental: (§1) Peptides were commercially obtained from Synpeptide Co., Ltd., Shanghai, China. All experiments have been made in triplicates and include control curves for bait and analyte only.
(§2) BLI was used to determine the affinity between Ytm1 and biotinylated peptides using streptavidin biosensors (FortéBio). The biosensors were hydrated 10 min in the same buffer used on the interference assay, with 0.05% (w/v) bovine serum albumin (BSA). 50 µg/ml of biotinylated peptide was immobilized at the streptavidin biosensor. Increasing concentrations of Ytm1 were used to calculate the KD values using the Blitz Pro 1.2 software using the implemented equations for association and dissociation:
Association phase: y=Rmax 1/1+kd/ka∗[Analyte](1−e^−(ka∗[Analyte]+kd)x) .
Dissociation phase: y=y0 e^−kd(x−x0). y0=Rmax 1/1+kd/ka∗[Analyte](1−e^−(ka∗[Analyte]+kd)x0).
According to P1, P3, and P6 results, a new N-terminal biotynilated peptide synthesis was ordered using the same sequences (Biot-P1, Biot-P3, and Biot-P6, Table 1). Biotynilated peptides Biot-P1 and Biot-P3 were immobilized to the streptavidin biosensor and Ytm1 binding was measured. Similarly, Biot-P6 was immobilized to the streptavidin biosensor followed by Erb1 binding. […] Inconsistent results were obtained in DSF using Erb1 and a proper Tm could not be obtained so thermal shift could not be evaluated for P6.

Erb1/Ytm1 complex [2] = target: T2, Erb1/Ytm1 complex (Thermochaetoides thermophila, UniProt G0SCK6); assay: Biolayer interferometry peptide interference assay, immobilized Ytm1, Erb1 analyte preincubated with P4-P6; format: binding, Chaetomium thermophilum; details: BLI, 20 µM Erb1 preincubated with equimolar peptide, reference without peptide 1.201e-3
T2 construct: 6xHis; made in house; host or cells: Erb1: Escherichia coli (DE3) BL21 CodonPlus (RIPL); Ytm1: Sf9 insect cells (baculovirus)

Erb1 = assay: Biolayer interferometry peptide affinity assay, immobilized biotinylated peptide, Erb1 analyte; format: binding, Chaetomium thermophilum; details: BLI, streptavidin biosensor, Erb1 as analyte
Experimental: as §1
as §2, with “dissociation: […]” for “dissociation:”
According to P1, P3, and P6 results, a new N-terminal biotynilated peptide synthesis was ordered using the same sequences (Biot-P1, Biot-P3, and Biot-P6, Table 1). Biotynilated peptides Biot-P1 and Biot-P3 were immobilized to the streptavidin biosensor and Ytm1 binding was measured. Similarly, Biot-P6 was immobilized to the streptavidin biosensor followed by Erb1 binding. […] To further confirm the interaction a differential scanning fluorimetry assay was performed. […] Inconsistent results were obtained in DSF using Erb1 and a proper Tm could not be obtained so thermal shift could not be evaluated for P6.

Erb1/Ytm1 complex [3] = target: T3, Erb1/Ytm1 complex (Thermochaetoides thermophila, UniProt G0SFB5); assay: Biolayer interferometry peptide interference assay, immobilized Erb1, Ytm1 analyte preincubated with P1-P3; format: binding, Chaetomium thermophilum; details: BLI, 5 µM Ytm1 preincubated with equimolar peptide, reference without peptide 1.724e-3
T3 construct: 6xHis; made in house; host or cells: Ytm1: Sf9 insect cells (baculovirus); Erb1: Escherichia coli (DE3) BL21 CodonPlus (RIPL)
T3 sequence (G0SFB5 1-495): T1 sequence (G0SFB5 1-495)
Experimental: as §1
Potential interference peptide samples were evaluated by their ability to interfere the kinetics and affinity of the complex between Erb1 and Ytm1 as measured by Biolayer Interferometry (BLItz, Pall FortéBio Corp.) using Ni-NTA biosensors (FortéBio) and 50 mM HEPES, pH 7.5; 150 mM NaCl; 5% (v/v) glycerol; and 2 mM β-mercaptoethanol (BME) buffer. To set the reference KD, an 80 µg/ml solution of Erb1 was immobilized to the biosensor in order to obtain binding curves for increasing concentrations of Ytm1. According to this, an evaluation of Erb1-derived peptides (P1–P3) was performed using 5 µM Ytm1 previously incubated during 30 min at equimolar concentrations of each peptide. New KD values were determined. […]
Biolayer interferometry interference assays were used to evaluate the ability of each peptide to interfere in the in vitro formation of the Erb1/Ytm1 complex. […] Peptides were evaluated for their ability to decrease in the Erb1/Ytm1 complex formation by preincubating the analyte with each peptide derived from the immobilized partner. […] Erb1-derived peptides were evaluated by their ability to decrease Erb1/Ytm1 complex affinity. […]

Ytm1 [4] = target: T1, Ytm1; assay: Differential scanning fluorimetry (thermofluor) of Ytm1 with peptide; format: binding, Chaetomium thermophilum; details: DSF, SYPRO Orange 1:1,000; 5 µM Ytm1, 1 mM peptide; 50 mM HEPES pH 7.5, 150 mM NaCl; 20-85°C at 1°C/min; triplicates
Experimental: Thermofluor assays ([Pantoliano et al., 2001]) were performed on a 7,500 Fast Real-Time PCR System (Applied Biosystems) measuring the gradual fluorescence generated by a 1:1,000 dilution of SYPRO Orange Protein Stain Gel (Supelco, Merck-Sigma) along with 1°C/min temperature increase from 20°C until 85°C.
The samples were mixed containing the protein Ytm1 at 5 µM in 50 mM HEPES pH 7.5, 150 mM NaCl and peptides P1-P3 at 1 mM concentration. Previously, lyophilized P2 and P3 were resuspended in the same Ytm1 buffer and P1 was solubilized in 10 mM Tris (hydroxymethyl)-methylamine (Tris-HCl), pH 8.8 for P1. Data of triplicated experiments were analyzed using GraphPad Prism 5.01 software.

[5] = target: T4, Ytm1 (Chaetomium thermophilum ribosome assembly factor) (Chaetomium thermophilum, UniProt G0SFB5 1-495); assay: BLI; biotinylated peptide (50 µg/ml) immobilised on streptavidin biosensor; Ytm1 (or Erb1 for Biot-P6) as analyte; interference-assay buffer with 0.05% BSA; details: both partners purified
T4 construct: Ytm1, Chaetomium thermophilum; YTM1 gene amplified from total cDNA and cloned in pOPIN-F; For MST, Ytm1 was labelled with the Red-NHS second-generation dye; source: Sf9 insect cells (baculovirus), purified (Histrap-HP Ni, Superdex 200 SEC)
T4 sequence: T1 sequence (G0SFB5 1-495)

[6] = target: T5, Ytm1 (Chaetomium thermophilum ribosome assembly factor) (Chaetomium thermophilum, UniProt G0SFB5 1-495); assay: BLI
T5 chain: T1 sequence (G0SFB5 1-495)

[7] = target: T4, Ytm1 (Chaetomium thermophilum ribosome …); assay: MST; 5 nM Ytm1 labelled with Red-NHS second-generation dye; 50 mM HEPES pH 7.5, 150 mM NaCl, 0.1% Pluronic F-127; peptide in sixteen serial dilutions (P1 1,230-0.0751 µM; P3 maximum 1,580 µM); Monolith NT.115; details: both partners purified

T2 sequence (G0SCK6 whole entry, one chain of several): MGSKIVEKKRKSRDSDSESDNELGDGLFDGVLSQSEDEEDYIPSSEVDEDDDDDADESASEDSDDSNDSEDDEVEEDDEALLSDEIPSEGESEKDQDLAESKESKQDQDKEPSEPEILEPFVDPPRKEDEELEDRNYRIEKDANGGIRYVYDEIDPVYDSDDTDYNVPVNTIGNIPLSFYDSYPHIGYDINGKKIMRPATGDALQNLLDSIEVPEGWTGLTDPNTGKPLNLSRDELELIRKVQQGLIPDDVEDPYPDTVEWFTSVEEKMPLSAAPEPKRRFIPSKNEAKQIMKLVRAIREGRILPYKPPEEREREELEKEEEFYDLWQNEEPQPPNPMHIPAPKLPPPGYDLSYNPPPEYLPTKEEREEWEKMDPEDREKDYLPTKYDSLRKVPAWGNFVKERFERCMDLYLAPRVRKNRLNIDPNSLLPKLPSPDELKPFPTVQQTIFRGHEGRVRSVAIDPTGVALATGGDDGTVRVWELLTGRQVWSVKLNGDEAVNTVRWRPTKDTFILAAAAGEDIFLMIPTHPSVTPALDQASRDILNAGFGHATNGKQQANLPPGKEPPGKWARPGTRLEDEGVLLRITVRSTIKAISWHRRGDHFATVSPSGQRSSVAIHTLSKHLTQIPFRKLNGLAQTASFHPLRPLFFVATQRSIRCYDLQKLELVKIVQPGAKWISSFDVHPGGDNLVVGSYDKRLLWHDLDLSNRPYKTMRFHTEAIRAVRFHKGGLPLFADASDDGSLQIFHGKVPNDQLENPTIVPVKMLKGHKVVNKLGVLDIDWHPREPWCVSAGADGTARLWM

In the case of `CC(C)C[C@H](NC(=O)[C@H](CCC(=O)O)NC(=O)[C@H](Cc1c[nH]c2ccccc12)NC(=O)[C@@H](NC(=O)CCCC[C@@H]1SC[C@@H]2NC(=O)N[C@@H]21)C(C)C)C(=O)N[C@@H](CC(C)C)C(=O)N[C@H](C(=O)NCC(=O)N[C@@H](CCCNC(=N)N)C(=O)N[C@@H](CCC(N)=O)C(=O)N[C@H](C(=O)N[C@@H](Cc1c[nH]c2ccccc12)C(=O)O)C(C)C)[C@@H](C)O` [Biot-P1] (Biotin-VWELLTGRQVW-OH), the kon (Ytm1 [1]) is reported as 386 M⁻¹ s⁻¹.

Molecule `CC(C)[C@H](NC(=O)[C@H](CS)NC(=O)[C@H](Cc1c[nH]c2ccccc12)NC(=O)[C@@H]1CCCN1C(=O)[C@H](CCC(=O)O)NC(=O)[C@H](CCCNC(=N)N)NC(=O)[C@@H]1CCCN1C(=O)[C@H](Cc1c[nH]cn1)NC(=O)[C@H](Cc1c[nH]c2ccccc12)NC(=O)[C@H](CC(=O)O)NC(=O)CCCC[C@@H]1SC[C@@H]2NC(=O)N[C@@H]21)C(=O)O` [Biot-P3] (Biotin-DWHPREPWCV-OH) has a kon (Ytm1 [1]) of 829 M⁻¹ s⁻¹.

In the case of “AGMDRTV [Peptide P5, Ytm1-derived peptide AGMDRTV, residues 194–200]”, the “kd (1/s) of Ytm1/Erb1 binding after preincubation of Erb1 with peptide” value (Erb1/Ytm1 complex [2]) is reported as 0.001655 s⁻¹.

Biotin-RGHANKV [Biot-P6] was tested, and the “Binding of Erb1 to immobilized biotinylated peptide” value (Erb1) was “could not detect binding” and the “Binding of Erb1 to immobilized biotinylated peptide” value (Erb1; listed as biot-P6) was “did not show binding”.

In the case of “HDDWVSA [Peptide P4, Ytm1-derived peptide HDDWVSA, residues 110–116]”, the “kd (1/s) of Ytm1/Erb1 binding after preincubation of Erb1 with peptide” value (Erb1/Ytm1 complex [2]) is reported as 0.001585 s⁻¹.

For “QQTIFRGH [Peptide P2, Erb1-derived peptide QQTIFRGH, residues 445–452]”, the “kd (1/s) of Erb1/Ytm1 binding after preincubation of Ytm1 with peptide” value (Erb1/Ytm1 complex [3]) was 0.01393 s⁻¹ and the “Thermal shift (Tm) of Ytm1 in the presence of peptide” value (Ytm1 [4]) was “no significant thermal shift”.

B1: Biot-P3 (N-terminally biotinylated Erb1 780-789) (peptide)
peptide: Biotin-DWHPREPWCV
notes: Erb1, Chaetomium thermophilum, residues 780-789; source: synthetic peptide, bought: Synpeptide Co., Ltd., Shanghai
In the case of B1, the binding result [5] is reported as “binds” and the Kd [6] is reported as 6.29 µM.

B2: Peptide P1 (Erb1 479-489) (peptide)
peptide: VWELLTGRQVW
notes: Erb1, Chaetomium thermophilum, residues 479-489; source: synthetic peptide, bought: Synpeptide Co., Ltd., Shanghai
In the case of B2, the Kd [7] is reported as 8.2 µM.

B3: Biot-P1 (N-terminally biotinylated Erb1 479-489) (peptide)
peptide: Biotin-VWELLTGRQVW
notes: as for B2
For B3, the binding result [5] was “binds” and the Kd [6] was 33.4 µM.
